Measurements reported in ChEMBL document CHEMBL1154839, “Molassamide, a depsipeptide serine protease inhibitor from the marine cyanobacterium Dichothrix utahensis” (J Nat Prod, 2010).
Calls of active or inactive are those of the source. No cut-off for these calls is given here.

What was measured:
[1] = molecular target: Chymotrypsin-like elastase family member 1 (Sus scrofa, UniProt P00772); assay: Inhibition of pig pancreatic elastase preincubated for 15 mins by spectrophotometry
Chymotrypsinogen A = Chymotrypsinogen A (Bos taurus, UniProt P00766); assay: Inhibition of bovine pancreas alpha-chymotrypsin preincubated for 10 mins by spectrophotometry
Trypsin (Sus scrofa) = Trypsin (Sus scrofa) (UniProt P00761); assay: Inhibition of pig pancreas trypsin at 10 uM preincubated for 10 mins by spectrophotometry
Sequence of Trypsin (Sus scrofa) (P00761 whole entry): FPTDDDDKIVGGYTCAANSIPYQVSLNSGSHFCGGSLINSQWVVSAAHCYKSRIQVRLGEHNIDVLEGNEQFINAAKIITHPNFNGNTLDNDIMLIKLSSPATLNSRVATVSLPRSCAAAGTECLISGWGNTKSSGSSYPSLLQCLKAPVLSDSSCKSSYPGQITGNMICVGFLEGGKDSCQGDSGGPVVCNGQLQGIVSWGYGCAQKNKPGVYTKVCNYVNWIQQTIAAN

Sequence of Chymotrypsin-like elastase family member 1 (P00772 whole entry): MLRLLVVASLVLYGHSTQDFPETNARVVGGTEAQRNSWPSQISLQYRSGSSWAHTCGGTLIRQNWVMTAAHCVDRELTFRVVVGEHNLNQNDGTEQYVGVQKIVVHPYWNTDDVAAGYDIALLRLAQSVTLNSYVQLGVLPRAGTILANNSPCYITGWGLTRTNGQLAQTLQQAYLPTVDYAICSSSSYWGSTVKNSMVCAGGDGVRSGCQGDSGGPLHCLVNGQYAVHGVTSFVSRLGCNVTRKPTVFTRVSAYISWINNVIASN

C/C=C1\NC(=O)[C@@H](NC(=O)[C@@H](NC(=O)[C@H](C)NC(=O)CCC)[C@@H](C)O)[C@@H](C)OC(=O)[C@H](C(C)C)NC(=O)[C@H](Cc2ccc(O)cc2)N(C)C(=O)[C@H](Cc2ccccc2)N2C(=O)[C@H](CC[C@H]2O)NC1=O [MOLASSAMIDE]
IC50 [1]: 32 nM | IC50 (Chymotrypsinogen A): 234 nM | inhibition (Trypsin (Sus scrofa)): inactive
